Assay results published in PMC5418314, “First-in-human phase I study of SOR-C13, a TRPV6 calcium channel inhibitor, in patients with advanced solid tumors” (Investigational New Drugs, 2017).
pIC50: −log10 of the molar value. Ends that are not written are not given here.

How the values were obtained:
CA 19–9 = CA 19–9 tumor biomarker levels in pancreatic cancer patients; assay type: in vivo, human
Procedure: (§1) Anti-tumor activity was evaluated by radiologic assessment of tumor size according to the New Response Evaluation Criteria in Solid Tumors (RECIST), Revised Guideline Version 1.1 [20] and changes in tumor-specific biomarker levels. The baseline radiologic assessment was performed ≤30 days prior to the first SOR-C13 dose. Tumor response was assessed after two cycles of treatment (between Days 15–21 of Cycle 2). For patients receiving additional cycles, tumor response was assessed after every 2 additional cycles, or earlier at the investigator’s discretion or as required by standard of care at the site.
For pharmacodynamic information changes of the plasma biomarkers ‘cleaved cytokeratin 18’, (ccK18) and TRPV6 mRNA levels, in response to treatment, were evaluated. Blood samples for the assessment of ccK18, TRPV6 mRNA or other tumor-specific biomarkers were collected within 24 h prior to the first infusion of SOR-C13, on Day 1 of Cycle 2, once between Days 15–21 of Cycle 2, during additional cycles, and at the Month 1 follow-up. We set a low basal level of ccK18 as 250 U/L as a cut-off point representing the 95th percentile median of healthy volunteers (Peviva M30 Apoptosense ELISA assay product literature).

breast cancer xenograft = experiment: xenograft model of breast cancer, tumor inhibition; assay type: in vivo
TRPV6 = settings: read-out: IC50, inhibition of TRPV6; cited from earlier work
Text: SOR-C13 is a short segment (13-mer) from the C-terminus of a paralytic peptide soricidin (accession number P0C2P6) discovered in the saliva of the Northern Short-tailed shrew (Blarina brevicauda), abundant in eastern North America. While not paralytic themselves, C-series peptides blocked calcium uptake by ovarian cancer cells in in vitro studies. […] TRPV6 is predominantly found in non-excitable tissues wi ...

ovarian cancer xenograft = experiment: xenograft model of ovarian cancer, tumor inhibition; assay type: in vivo
[1] = test system: advanced solid tumors of epithelial origin; experiment: Phase I anti-tumor activity (RECIST 1.1); assay type: in vivo, human
Procedure: as §1

## KEFLHPSKVDLPR [SOR-C13]
CA 19–9; pancreatic cancer patient treated at 6.25 mg/kg, after cycle 2
  decrease in CA 19–9: 29%
CA 19–9; pancreatic cancer patient, 6.2 mg/kg, after cycle 4
  decrease in CA 19–9: 55%
Breast cancer xenograft
  inhibition of tumors: effective
TRPV6
  pIC50: 7.85
Ovarian cancer xenograft
  inhibition of tumors: effective
[1]; 1.375 mg/kg, 90-min infusion
  patients with stable disease after two cycles: two out of the three patients
[1]; 12 of 22 evaluable patients, after two cycles, RECIST 1.1
  patients with stable disease: 54.5%
[1]; ovarian cancer (OVca) patients
  patients with stable disease after 2 cycles: two of the four
[1]; pancreatic cancer patient, 2.75 mg/kg, 90-min infusions
  duration of stable disease: four cycles
[1]; pancreatic cancer patient, 6.2 mg/kg, 90-min infusions
  duration of stable disease: over 10 cycles
[1]; pancreatic cancer patient, 6.2 mg/kg, 90-min infusions, after 4 cycles
  reduction from baseline in the sum of tumor diameters: 27%
[1]; patient with adenoid cystic carcinoma of the tongue, 4.13 mg/kg
  duration of stable disease (cycles received): 18 cycles
